{
  "source": "paper PMC11766569",
  "about": "“Novel Insights into the Nobilamide Family from a Deep-Sea Bacillus: Chemical Diversity, Biosynthesis and Antimicrobial Activity Towards Multidrug-Resistant Bacteria” (Marine Drugs, 2025)",
  "key": {"[1]": {"tested_on": "S. aureus vancomycin-resistant", "experiment": "Liquid inhibition assay (MIC)", "assay_type": "cell-based, Staphylococcus aureus", "settings": "vancomycin-resistant S. aureus (VRSA), 96-well, MH medium, ~5 × 10^4 CFU/well, 18 h at 37 °C, absorbance at 600 nm", "description": "(§1) To evaluate the antimicrobial potential of all samples, the MICs for E. coli ATCC® 10536™, S. aureus ATCC® 6538™, S. aureus ATCC® 6538p™, methicillin-resistant S. aureus (MRSA), macrolide-resistant S. aureus ([…]), quinolone-resistant S. aureus (QRSA), vancomycin-resistant S. aureus (VRSA), S. epidermidis RP206 [7], S. xylosus MB 5209 [77] were determined by the liquid inhibition assay. Briefly, the bacterial strains were inoculated in 3 mL of liquid Mueller–Hinton broth (MHB) (HiMedia, Einhausen, Germany) in sterile bacteriological tubes and incubated in agitation at 37 °C until they reached the turbidity of 0.5 McFarland. Different from the remaining pathogens, L. monocytogenes MB 677 [79] was diluted in the Trypticasein soy broth (TSB) medium with an additional 0.6% yeast extract. Finally, serial dilutions of the inoculum were performed to obtain a final bacterial concentration of about 5 × 10^5 CFU/mL. Then, 4 µL of each sample was added into a 96-well microtiter plate containing 200 µL of MH medium. After being serially diluted using MH medium, 100 µL of bacterial suspension was inoculated into the broth (~5 × 10^4 CFU/well) and incubated statically for 18 h at 37 °C. DMSO was used as a control to determine the effect of solvent on cell growth. Vancomycin, erythromycin, and ampicillin were used as positive controls."}, "S. aureus 6538p": {"tested_on": "S. aureus 6538p", "experiment": "microbe, parasite or virus in culture", "assay_type": "cell-based, Staphylococcus aureus", "description": "as §1"}, "[2]": {"tested_on": "S. aureus macrolide-resistant", "experiment": "microbe, parasite or virus in culture", "assay_type": "cell-based, Staphylococcus aureus", "description": "as §1"}, "S. aureus 6538": {"tested_on": "S. aureus 6538", "experiment": "microbe, parasite or virus in culture", "assay_type": "cell-based, Staphylococcus aureus", "description": "as §1"}, "[3]": {"tested_on": "S. aureus quinolone-resistant", "experiment": "microbe, parasite or virus in culture", "assay_type": "cell-based, Staphylococcus aureus", "description": "as §1"}, "[4]": {"tested_on": "S. aureus methicillin-resistant", "experiment": "microbe, parasite or virus in culture", "assay_type": "cell-based, Staphylococcus aureus", "description": "as §1"}, "S. xilosus MB5209": {"tested_on": "S. xilosus MB5209", "experiment": "microbe, parasite or virus in culture", "assay_type": "cell-based, S. xylosus", "description": "as §1"}, "S. epidermidis RP206": {"tested_on": "S. epidermidis RP206", "assay_type": "cell-based", "settings": "RP206, 18 h", "description": "as §1"}, "L. monocytogenes 677": {"tested_on": "L. monocytogenes 677", "experiment": "microbe, parasite or virus in culture", "assay_type": "cell-based, Listeria monocytogenes", "description": "as §1"}, "E. coli ATCC 10536": {"tested_on": "E. coli ATCC 10536", "experiment": "Liquid inhibition assay (MIC)", "assay_type": "cell-based, Escherichia coli", "settings": "Gram-negative E. coli ATCC 10536", "description": "as §1"}},
  "note": "Like-named read-outs stand apart in the source and are kept apart here. Marks after values point to notes of the source that are not given here. Bridge positions count the residues as written; N and C are the ends. Square brackets hold non-standard residues; d marks the D form. Peptide text beside a SMILES is read from it. d(aThr) = C[C@@H](O)[C@@H](N)C(=O)O; Dhb = C/C=C(\\N)C(=O)O",
  "data": [
    {"smiles": "CC[C@H]1OC(=O)[C@H](C)[C@@H](O[C@H]2C[C@@](C)(OC)[C@@H](O)[C@H](C)O2)[C@H](C)[C@@H](O[C@@H]2O[C@H](C)C[C@H](N(C)C)[C@H]2O)[C@](C)(O)C[C@@H](C)C(=O)[C@H](C)[C@@H](O)[C@]1(C)O", "note": "[erythromycin]", "values": [
      {"measurement": "MIC", "setting": "[1]; Staphylococcus aureus, read-out: MIC", "result": 1, "unit": "µg/mL"},
      {"measurement": "MIC", "setting": "[1]", "result": "1 ^b μg/mL"}
    ]},
    {"smiles": "CN[C@H](CC(C)C)C(=O)N[C@H]1C(=O)N[C@@H](CC(N)=O)C(=O)N[C@H]2C(=O)N[C@H]3C(=O)N[C@H](C(=O)N[C@H](C(=O)O)c4cc(O)cc(O)c4-c4cc3ccc4O)[C@H](O)c3ccc(c(Cl)c3)Oc3cc2cc(c3O[C@@H]2O[C@H](CO)[C@@H](O)[C@H](O)[C@H]2O[C@H]2C[C@](C)(N)[C@H](O)[C@H](C)O2)Oc2ccc(cc2Cl)[C@H]1O", "note": "[Vancomycin]", "values": [
      {"measurement": "MIC", "setting": "S. aureus 6538p; S. aureus 6538p, 96-well, MH medium, ~5 × 10^4 CFU/well, 18 h at 37 °C, absorbance at 600 nm, lowest concentration that completely inhibited growth", "result": "1 ^a μg/mL"},
      {"measurement": "MIC", "setting": "S. aureus 6538p; Staphylococcus aureus, 6538P, 18 h", "result": 1, "unit": "µg/mL"},
      {"measurement": "MIC", "setting": "[2]; Staphylococcus aureus, 18 h", "result": 0.5, "unit": "µg/mL"},
      {"measurement": "MIC", "setting": "[2]; macrolide-resistant S. aureus, 96-well, MH medium, ~5 × 10^4 CFU/well, 18 h at 37 °C, absorbance at 600 nm", "result": "0.5 ^a μg/mL"},
      {"measurement": "MIC", "setting": "S. aureus 6538; S. aureus 6538, 96-well, MH medium, ~5 × 10^4 CFU/well, 18 h at 37 °C, absorbance at 600 nm", "result": "0.5 ^a μg/mL"},
      {"measurement": "MIC", "setting": "S. aureus 6538; Staphylococcus aureus, 6538, 18 h", "result": 0.5, "unit": "µg/mL"},
      {"measurement": "MIC", "setting": "[3]; Staphylococcus aureus, 18 h", "result": 0.5, "unit": "µg/mL"},
      {"measurement": "MIC", "setting": "[3]; quinolone-resistant S. aureus, 96-well, MH medium, ~5 × 10^4 CFU/well, 18 h at 37 °C, absorbance at 600 nm", "result": "0.5 ^a μg/mL"},
      {"measurement": "MIC", "setting": "[4]; Staphylococcus aureus, 18 h", "result": 0.5, "unit": "µg/mL"},
      {"measurement": "MIC", "setting": "[4]; methicillin-resistant S. aureus, 96-well, MH medium, ~5 × 10^4 CFU/well, 18 h at 37 °C, absorbance at 600 nm", "result": "0.5 ^a μg/mL"},
      {"measurement": "MIC", "setting": "S. xilosus MB5209; S. xilosus MB5209, 96-well, MH medium, ~5 × 10^4 CFU/well, 18 h at 37 °C, absorbance at 600 nm", "result": "0.5 ^a μg/mL"},
      {"measurement": "MIC", "setting": "S. xilosus MB5209; Staphylococcus xylosus, MB5209, 18 h", "result": 0.5, "unit": "µg/mL"}
    ]},
    {"smiles": "C/C=C1\\NC(=O)[C@H](C)NC(=O)[C@H](C(C)C)NC(=O)[C@H](NC(=O)[C@H](Cc2ccccc2)NC(=O)[C@@H](CC(C)C)NC(=O)[C@@H](Cc2ccccc2)NC(C)=O)[C@@H](C)OC1=O", "note": "[TL-119] (Ac-[dF][dL]F[d(aThr)]VA[Dhb]; ester 4-C)", "values": [
      {"measurement": "MIC", "setting": "S. epidermidis RP206", "result": 7.8, "unit": "µg/mL"},
      {"measurement": "MIC", "setting": "L. monocytogenes 677; 677, 18 h", "result": 0.24, "unit": "µg/mL"},
      {"measurement": "antibacterial activity (in words)", "setting": "E. coli ATCC 10536", "result": "lack of antibacterial activity"},
      {"measurement": "MIC", "setting": "S. aureus 6538p; 6538p, 18 h", "result": 0.24, "unit": "µg/mL"},
      {"measurement": "MIC", "setting": "[2]; macrolide-resistant, 18 h", "result": 1.9, "unit": "µg/mL"},
      {"measurement": "MIC", "setting": "S. aureus 6538; 6538, 18 h", "result": 0.24, "unit": "µg/mL"},
      {"measurement": "MIC", "setting": "[3]; quinolone-resistant, 18 h", "result": 0.9, "unit": "µg/mL"},
      {"measurement": "MIC", "setting": "[4]; methicillin-resistant, 18 h", "result": 3.9, "unit": "µg/mL"},
      {"measurement": "MIC", "setting": "S. xilosus MB5209; 18 h", "result": 7.8, "unit": "µg/mL"}
    ]},
    {"smiles": "CC1(C)S[C@@H]2[C@H](NC(=O)[C@H](N)c3ccccc3)C(=O)N2[C@H]1C(=O)O", "note": "[ampicillin]", "values": [
      {"measurement": "MIC", "setting": "L. monocytogenes 677; L. monocytogenes 677, diluted in TSB with 0.6% yeast extract, 18 h at 37 °C, absorbance at 600 nm", "result": "1 ^c μg/mL"},
      {"measurement": "MIC", "setting": "L. monocytogenes 677; Listeria monocytogenes, 677, 18 h", "result": 1, "unit": "µg/mL"}
    ]}
  ]
}
